Converted amounts (≈) assume the structure as drawn.
Key:
[1] = system: Staphylococcus aureus-SMITH (GC 4543); test: Acute lethal infection in mice (ED50); format: in vivo; settings: female CD-1 mice, intraperitoneal challenge, intravenous dose 30 min. after infection, 7 day survival ratios
Procedure, shortened: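 Bacteria suspended in Trypticase Soy Broth or hog gastric mucin are injected intraperitoneally into female CD-1 mice at a dose killing untreated animals within 24-48 hr. Thirty minutes later, test agent is administered intravenously. Survival at day 7 is scored.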

Escherichia coli = test: In vitro antibacterial evaluation: minimum inhibitory concentration (MIC), broth dilution method; format: cell-based; settings: 18 hours at 35° C.
Procedure, shortened: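 Test strains, among them recent clinical isolates carrying methicillin, penicillin and/or vancomycin resistance, were inoculated at 5×10^5 CFU/mL. A broth dilution series spanning 64-0.06 μg/mL in Muller-Hinton II […] (NCCLS M7-A2) defined the MIC as the lowest growth-inhibiting concentration.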

Streptococcus sp. = test: as above; format: cell-based; settings: 18 hours at 35° C.
Procedure, shortened: (§1)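 MIC by broth dilution in Mueller-Hinton II medium following NCCLS M7-A2. Inoculum was 5×10^5 CFU/mL and antibiotic was tested over 64-0.06 μg/mL. Gram-positive panel included clinical isolates resistant to methicillin, penicillin and/or vancomycin.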

Staphylococcus sp. = test: as above; format: cell-based; settings: 18 hours at 35° C.
Procedure, shortened: as §1

Enterococcus sp. = test: as above; format: cell-based; settings: 18 hours at 35° C.
Procedure, shortened: as §1

[2] = Streptococcus pneumoniae (ATCC 6301)
[3] = Streptococcus pneumoniae (GC 1894)
[4] = Streptococcus pyogenes (GC 4563)
[5] = broth dilution, inoculum 5×10^5 CFU/mL
[6] = Enterococcus faecalis (ATCC 29212)
[7] = Enterococcus faecalis (GC 2242)
[8] = Enterococcus faecalis (GC 2691)
[9] = Enterococcus faecalis (GC 3059)
[10] = Enterococcus faecalis (GC 4552)
[11] = Enterococcus faecalis (GC 4553)
[12] = Enterococcus faecalis (GC 4554)
[13] = Enterococcus faecalis (GC 6189)

CC(c1ccccc1)C1NC(=O)CNC(=O)C(CO)NC(=O)C(C(O)C2CNC(=N)N2C2OC(CO)C(O)C(O)C2O)NC(=O)C(C(O)C2CNC(=N)N2)NC(=O)C(Cc2ccc(OC3OC(CO)C(OC4OC(CO)C(OCc5ccc(OCc6ccccc6)cc5)C(O)C4O)C(O)C3O)cc2)NC1=O (stereo not drawn) [Example 231a, Cyclo[glycyl-β-methylphenylalanyl-O-[4-O-[4-O-[4-(phenylmethoxy)benzyl]hexopyranosyl]-hexopyranosyl]tyrosyl-3-(2-iminoimidazolidin-4-yl)seryl-3-(3-hexopyranosyl-2-iminoimidazolidin-4-yl)serylseryl]]
median effective dose (ED50), Staphylococcus aureus-SMITH (GC 4543) [1]: 0.06 mg/kg | MIC Escherichia coli (GC 4559) (Escherichia coli; Escherichia coli (GC 4559)): 32 µg/mL (≈ 21.5 µM) | MIC Escherichia coli (GC 4560) (Escherichia coli): 0.5 to 2 µg/mL | MIC Streptococcus agalactiae (GC 4564) (Streptococcus sp.; Streptococcus agalactiae (GC 4564)): <0.06 µg/mL | MIC Streptococcus pneumoniae (ATCC 6301) (Streptococcus sp.; [2]): <0.06 µg/mL | MIC Streptococcus pneumoniae (GC 1894) (Streptococcus sp.; [3]): <0.06 µg/mL | MIC Streptococcus pneumoniae (GC 4565) (Streptococcus sp.; Streptococcus pneumoniae (GC 4565)): <0.06 µg/mL | MIC Streptococcus pyogenes (GC 4563) (Streptococcus sp.; [4]): <0.06 µg/mL | MIC Streptococcus agalactiae (GC 4564) (Streptococcus sp.; [5]): <0.06 µg/mL | MIC Streptococcus pneumoniae (ATCC 6301) (Streptococcus sp.; [5]): <0.06 µg/mL | MIC Streptococcus pneumoniae (GC 1894) (Streptococcus sp.; [5]): <0.06 µg/mL | MIC Streptococcus pneumoniae (GC 4565) (Streptococcus sp.; [5]): <0.06 µg/mL | MIC Streptococcus pyogenes (GC 4563) (Streptococcus sp.; [5]): <0.06 µg/mL | MIC Coagulase Negative Staphylococcus (GC 4547) (Staphylococcus sp.): 1 µg/mL (≈ 0.67 µM) | MIC Coagulase Negative Staphylococcus (GC 4551) (Staphylococcus sp.): 0.5 µg/mL (≈ 0.335 µM) | MIC Coagulase Negative Staphylococcus (GC 6257) (Staphylococcus sp.; Coagulase Negative Staphylococcus (GC 6257)): 0.5 µg/mL (≈ 0.335 µM) | MIC Staphylococcus aureus (ATCC 29213) (Staphylococcus sp.): 1 to 2 µg/mL | MIC Staphylococcus aureus (GC 1131) (Staphylococcus sp.): 1 to 2 µg/mL | MIC Staphylococcus aureus (GC 3051) (Staphylococcus sp.): 1 µg/mL (≈ 0.67 µM) | MIC Staphylococcus aureus (GC 3053) (Staphylococcus sp.): 1 to 2 µg/mL | MIC Staphylococcus aureus (GC 4541) (Staphylococcus sp.): 1 to 2 µg/mL | MIC Staphylococcus aureus (GC 4542) (Staphylococcus sp.): 0.5 to 1 µg/mL | MIC Staphylococcus aureus (GC 4544) (Staphylococcus sp.): 2 to 4 µg/mL | MIC Staphylococcus aureus (GC 4545) (Staphylococcus sp.): 1 to 2 µg/mL | MIC Staphylococcus aureus-SMITH (GC 4543) (Staphylococcus sp.): 1 µg/mL (≈ 0.67 µM) | MIC Staphylococcus haemolyticus (GC 4546) (Staphylococcus sp.; Staphylococcus haemolyticus (GC 4546)): 1 µg/mL (≈ 0.67 µM) | MIC Enterococcus avium (GC 4558) (Enterococcus sp.; Enterococcus avium (GC 4558)): 2 µg/mL (≈ 1.34 µM) | MIC Enterococcus faecalis (ATCC 29212) (Enterococcus sp.; [6]): 2 µg/mL (≈ 1.34 µM) | MIC Enterococcus faecalis (GC 2242) (Enterococcus sp.; [7]): 2 to 4 µg/mL | MIC Enterococcus faecalis (GC 2691) (Enterococcus sp.; [8]): 2 µg/mL (≈ 1.34 µM) | MIC Enterococcus faecalis (GC 3059) (Enterococcus sp.; [9]): 1 to 2 µg/mL | MIC Enterococcus faecalis (GC 4552) (Enterococcus sp.; [10]): 4 µg/mL (≈ 2.68 µM) | MIC Enterococcus faecalis (GC 4553) (Enterococcus sp.; [11]): 4 µg/mL (≈ 2.68 µM) | MIC Enterococcus faecalis (GC 4554) (Enterococcus sp.; [12]): 4 µg/mL (≈ 2.68 µM) | MIC Enterococcus faecalis (GC 6189) (Enterococcus sp.; [13]): 1 to 2 µg/mL | MIC Enterococcus faecium (GC 2243) (Enterococcus sp.; Enterococcus faecium (GC 2243)): 2 µg/mL (≈ 1.34 µM) | MIC Enterococcus faecium (GC 4556) (Enterococcus sp.; Enterococcus faecium (GC 4556)): 2 to 4 µg/mL | MIC Enterococcus faecium (GC 4557) (Enterococcus sp.; Enterococcus faecium (GC 4557)): 2 µg/mL (≈ 1.34 µM) | MIC Enterococcus avium (GC 4558) (Enterococcus sp.; [5]): 2 µg/mL (≈ 1.34 µM) | MIC Enterococcus faecalis (ATCC 29212) (Enterococcus sp.; [5]): 2 µg/mL (≈ 1.34 µM) | MIC Enterococcus faecalis (GC 2242) (Enterococcus sp.; [5]): 2 to 4 µg/mL | MIC Enterococcus faecalis (GC 2691) (Enterococcus sp.; [5]): 2 µg/mL (≈ 1.34 µM) | MIC Enterococcus faecalis (GC 3059) (Enterococcus sp.; [5]): 1 to 2 µg/mL | MIC Enterococcus faecalis (GC 4552) (Enterococcus sp.; [5]): 4 µg/mL (≈ 2.68 µM) | MIC Enterococcus faecalis (GC 4553) (Enterococcus sp.; [5]): 4 µg/mL (≈ 2.68 µM) | MIC Enterococcus faecalis (GC 4554) (Enterococcus sp.; [5]): 4 µg/mL (≈ 2.68 µM) | MIC Enterococcus faecalis (GC 6189) (Enterococcus sp.; [5]): 1 to 2 µg/mL | MIC Enterococcus faecium (GC 2243) (Enterococcus sp.; [5]): 2 µg/mL (≈ 1.34 µM) | MIC Enterococcus faecium (GC 4556) (Enterococcus sp.; [5]): 2 to 4 µg/mL | MIC Enterococcus faecium (GC 4557) (Enterococcus sp.; [5]): 2 µg/mL (≈ 1.34 µM)

CCCOc1ccc(COCC2OC(OC3C(CO)OC(Oc4ccc(CC5NC(=O)C(C(C)c6ccccc6)NC(=O)CNC(=O)C(CO)NC(=O)C(C(O)C6CNC(=N)N6C6OC(CO)C(O)C(O)C6O)NC(=O)C(C(O)C6CNC(=N)N6)NC5=O)cc4)C(O)C3O)C(O)C(O)C2O)cc1 (stereo not drawn) [Example 235, Cyclo[glycyl-β-methylphenylalanyl-O-[4-O-[6-O-(4-propoxybenzyl)hexopyranosyl]hexopyranosyl]tyrosyl-3-(2-iminoimidazolidin-4-yl)seryl-3-(3-hexopyranosyl-2-iminoimidazolidin-4-yl)serylseryl]]
median effective dose (ED50), Staphylococcus aureus-SMITH (GC 4543) [1]: 0.59 mg/kg | MIC Escherichia coli (GC 4560) (Escherichia coli): 0.5 to 1 µg/mL | MIC Streptococcus pneumoniae (ATCC 6301) (Streptococcus sp.; [2]): 0.12 µg/mL (≈ 0.0831 µM) | MIC Streptococcus pneumoniae (GC 1894) (Streptococcus sp.; [3]): <0.06 µg/mL | MIC Streptococcus pyogenes (GC 4563) (Streptococcus sp.; [4]): 0.25 µg/mL (≈ 0.173 µM) | MIC Streptococcus pneumoniae (ATCC 6301) (Streptococcus sp.; [5]): 0.12 µg/mL (≈ 0.0831 µM) | MIC Streptococcus pneumoniae (GC 1894) (Streptococcus sp.; [5]): <0.06 µg/mL | MIC Streptococcus pyogenes (GC 4563) (Streptococcus sp.; [5]): 0.25 µg/mL (≈ 0.173 µM) | MIC Coagulase Negative Staphylococcus (GC 4547) (Staphylococcus sp.): 0.5 to 1 µg/mL | MIC Coagulase Negative Staphylococcus (GC 4551) (Staphylococcus sp.): 0.5 to 1 µg/mL | MIC Staphylococcus aureus (ATCC 29213) (Staphylococcus sp.): 0.5 to 1 µg/mL | MIC Staphylococcus aureus (GC 1131) (Staphylococcus sp.): 1 to 2 µg/mL | MIC Staphylococcus aureus (GC 3051) (Staphylococcus sp.): 0.5 to 2 µg/mL | MIC Staphylococcus aureus (GC 3053) (Staphylococcus sp.): 1 to 2 µg/mL | MIC Staphylococcus aureus (GC 4541) (Staphylococcus sp.): 0.5 to 1 µg/mL | MIC Staphylococcus aureus (GC 4542) (Staphylococcus sp.): 0.5 to 2 µg/mL | MIC Staphylococcus aureus (GC 4544) (Staphylococcus sp.): 1 to 2 µg/mL | MIC Staphylococcus aureus (GC 4545) (Staphylococcus sp.): 1 to 2 µg/mL | MIC Staphylococcus aureus-SMITH (GC 4543) (Staphylococcus sp.): 0.5 to 1 µg/mL | MIC Enterococcus avium (GC 4558) (Enterococcus sp.; Enterococcus avium (GC 4558)): 4 µg/mL (≈ 2.77 µM) | MIC Enterococcus faecalis (ATCC 29212) (Enterococcus sp.; [6]): 4 µg/mL (≈ 2.77 µM) | MIC Enterococcus faecalis (GC 2242) (Enterococcus sp.; [7]): 4 µg/mL (≈ 2.77 µM) | MIC Enterococcus faecalis (GC 2691) (Enterococcus sp.; [8]): 4 µg/mL (≈ 2.77 µM) | MIC Enterococcus faecalis (GC 3059) (Enterococcus sp.; [9]): 4 to 8 µg/mL | MIC Enterococcus faecalis (GC 4552) (Enterococcus sp.; [10]): 4 µg/mL (≈ 2.77 µM) | MIC Enterococcus faecalis (GC 4553) (Enterococcus sp.; [11]): 4 µg/mL (≈ 2.77 µM) | MIC Enterococcus faecalis (GC 4554) (Enterococcus sp.; [12]): 4 to 8 µg/mL | MIC Enterococcus faecalis (GC 6189) (Enterococcus sp.; [13]): 4 µg/mL (≈ 2.77 µM) | MIC Enterococcus faecium (GC 2243) (Enterococcus sp.; Enterococcus faecium (GC 2243)): 4 µg/mL (≈ 2.77 µM) | MIC Enterococcus faecium (GC 4556) (Enterococcus sp.; Enterococcus faecium (GC 4556)): 4 µg/mL (≈ 2.77 µM) | MIC Enterococcus faecium (GC 4557) (Enterococcus sp.; Enterococcus faecium (GC 4557)): 0.5 to 2 µg/mL | MIC Enterococcus faecalis (GC 2242) (Enterococcus sp.; [5]): 4 µg/mL (≈ 2.77 µM) | MIC Enterococcus faecalis (GC 2691) (Enterococcus sp.; [5]): 4 µg/mL (≈ 2.77 µM) | MIC Enterococcus faecalis (GC 3059) (Enterococcus sp.; [5]): 4 to 8 µg/mL

Reference: US8247211B2, “Glycopeptide antibiotics” (American Cyanamid Company, priority 2001, dated 2012)
